Laboratory results: paper PMC6199744, “Development of Chemical Proteomics for the Folateome and Analysis of the Kinetoplastid Folateome” (ACS Infectious Diseases, 2018)

Test system: L. major lysate proteins
Assay: Multitargeted bead mixture chemoproteomics, single concentration competition, proteome-wide
Type: binding
Settings: for fold change: vehicle control = 1

Which results are given for `Nc1nc2[nH]cc(CCc3ccc(C(=O)N[C@@H](CCC(=O)O)C(=O)O)cc3)c2c(=O)[nH]1` [PTX, pemetrexed]?
fold change vs vehicle control (protein LMJF.28.0110 […] 3 SUBUNIT, PUTATIVE): 0.95; fold change vs vehicle control (protein LMJF.28.0490 PROPIONYL-COA C[…] CHAIN, PUTATIVE): 1.09; fold change (protein LMJF.28.0710 HY[…], CONSERVED (SNARE associated Golgi protein, putative)): 0.8; fold change vs vehicle control (protein LMJF.28.0930 HY[…], CONSERVED): 0.96; fold change vs vehicle control (protein LMJF.28.0960 40S RIBOSOMAL PROTEIN S14): 1.01; fold change vs vehicle control (protein LMJF.28.1530 ATP DEPENDENT DEAD-BOX HELICASE, PUTATIVE): 0.81; fold change relative to vehicle control (protein LMJF.28.1730, […]-ATP-ASE SUBUNIT 2, PUTATIVE): 1.01; fold change vs vehicle control (protein LMJF.28.2430 VACUOLAR ATP SYNTHASE SUBUNIT B, PUTATIVE): 0.95; fold change relative to vehicle control (protein LMJF.28.2770, HEAT-SHOCK PROTEIN HSP70, PUTATIVE): 1.13; fold change (protein LMJF.28.2910 GLUTAMATE DEHYDROGENASE, PUTATIVE): 0.86; fold change vs vehicle control (protein LMJF.29.0120 […]-ATPASE SUBUNIT, PUTATIVE): 0.92; fold change (protein LMJF.29.0620 ATP-BINDING CASSETTE PROTEIN SUBFAMILY A, MEMBER 10, PUTATIVE): 0.73; fold change relative to vehicle control (protein LMJF.29.0850, HIGH MOBILITY GROUP PROTEIN HOMOLOG TDP-1, PUTATIVE): 1.14; fold change vs vehicle control (protein LMJF.29.0940 HY[…], CONSERVED): 1; fold change vs vehicle control (protein LMJF.29.1160 TRYPAREDOXIN): 0.85; fold change vs vehicle control (protein LMJF.29.1240 HY[…], UNKNOWN FUNCTION): 0.95; fold change vs vehicle control (protein LMJF.29.1270 100 kDa heat shock protein (Hsp100)): 0.95; fold change vs vehicle control (protein LMJF.29.1310 CARNITINE/CHOLINE ACETYLTRANSFERASE, PUTATIVE): 0.97; fold change relative to vehicle control (protein LMJF.29.1760, PAR[…] PROTEIN 1D, PUTATIVE): 1.4; fold change vs vehicle control (protein LMJF.29.1780 D[…] PROTEIN, PUTATIVE): 0.9; fold change (protein LMJF.29.2200 GTP-BINDING PROTEIN, PUTATIVE (dynamin-1-like protein)): 0.98; fold change (protein LMJF.29.2310 ENOYL-COA HYDRATASE/ISOMERASE-LIKE PROTEIN): 0.93; fold change vs vehicle control (protein LMJF.29.2360 ASPARTYL AMINOPEPTIDASE, PUTATIVE,METALLO-PEPTIDASE, CLAN MH, FAMILY M20): 0.84; fold change (protein LMJF.29.2860 40S RIBOSOMAL PROTEIN S19-LIKE PROTEIN): 1.11; fold change (protein LMJF.30.0580 HY[…], CONSERVED (AMP-binding enzyme, putative)): 0.77; fold change (protein LMJF.30.0850 SURFACE PROTEIN AMASTIN, PUTATIVE): 0.89; fold change vs vehicle control (protein LMJF.30.1250 PYRIDOXAL KINASE, PUTATIVE): 1.01; fold change relative to vehicle control (protein LMJF.30.3090, HY[…], CONSERVED (RNA-binding protein 42, putative)): 1.14; fold change vs vehicle control (protein LMJF.30.3240 GLUTAMYL-TRNA SYNTHETASE, PUTATIVE): 1.09; fold change (protein LMJF.30.3430 HY[…], CONSERVED (protein mkt1, putative)): 0.97; fold change (protein LMJF.30.3520 S-ADENOSYL[…]): 0.85; fold change (protein LMJF.30.3570 ZINC FINGER-DOMAIN PROTEIN, PUTATIVE): 0.7; fold change relative to vehicle control (protein LMJF.31.0080, HY[…], CONSERVED): 1.19; fold change vs vehicle control (protein LMJF.31.0340 AMINO ACID PERMEASE, PUTATIVE): 0.93; fold change (protein LMJF.31.1130 N-ACYL-L-AMINO ACID AMIDOHYDROLASE, PUTATIVE): 0.96; fold change vs vehicle control (protein LMJF.31.1640 THIOLASE PROTEIN-LIKE PROTEIN): 0.95; fold change relative to vehicle control (protein LMJF.31.2150, PROSTAGLANDIN F2-ALPHA SYNTHASE/D-ARABINOSE DEHYDROGENASE): 0.94; fold change vs vehicle control (protein LMJF.31.2250 3,2-TRANS-ENOYL-COA ISOMERASE, MIT[…], PUTATIVE): 0.92; fold change vs vehicle control (protein LMJF.32.0750 RNA BINDING PROTEIN, PUTATIVE): 1.04; fold change vs vehicle control (protein LMJF.32.1060 DYNEIN, PUTATIVE): 0.94; fold change relative to vehicle control (protein LMJF.32.1820, IRON SUPEROXIDE DISMUTASE, PUTATIVE): 1.02; fold change relative to vehicle control (protein LMJF.32.2320, C-14 STEROL REDUCTASE, PUTATIVE): 1.11; fold change vs vehicle control (protein LMJF.32.3870 MYOSIN XXI): 0.93; fold change relative to vehicle control (protein LMJF.33.0240, THIOL-DEPENDENT REDUCTASE 1): 1.12; fold change (protein LMJF.33.0280 HY[…], CONSERVED): 1.02; fold change relative to vehicle control (protein LMJF.33.0890, HY[…], CONSERVED): 0.88; fold change vs vehicle control (protein LMJF.33.1070 HY[…], UNKNOWN FUNCTION): 1.02; fold change vs vehicle control (protein LMJF.33.1330 CYSTEINE CONJUGATE BETA-LYASE, AMINOTRANSFERASE- LIKE PROTEIN): 0.74; fold change (protein LMJF.33.1590 HY[…], CONSERVED (3-ketoacyl-CoA reductase, putative)): 1.36; fold change relative to vehicle control (protein LMJF.33.1860, ATP-BINDING CASSETTE PROTEIN SUBFAMILY D, MEMBER 3, PUTATIVE): 1.27; fold change relative to vehicle control (protein LMJF.33.2340, SUCCINYL-COA:3-KETOACID-COENZYME A TRANSFERASE, MIT[…], PUTATIVE): 1.06; fold change relative to vehicle control (protein LMJF.33.2440, HY[…], CONSERVED): 1.15; fold change relative to vehicle control (protein LMJF.33.2540, CARBOXYPEPTIDASE, PUTATIVE,METALLO-PEPTIDASE, CLAN MA(E), FAMILY M32): 1.24; fold change (protein LMJF.33.3150 40S RIBOSOMAL PROTEIN S13, PUTATIVE): 1.05; fold change relative to vehicle control (protein LMJF.34.0140, MALATE DEHYDROGENASE): 1.48; fold change vs vehicle control (protein LMJF.34.0440 RIBOSOMAL PROTEIN S25): 1.12; fold change relative to vehicle control (protein LMJF.34.2580, HY[…], CONSERVED (ALBA-domain protein 3)): 1.03; fold change relative to vehicle control (protein LMJF.34.3250, PUTATIVE PYRUVATE/INDOLE-PYRUVATE CARBOXYLASE, PUTATIVE): 1.01; fold change (protein LMJF.34.4370 20S […] 7 SUBUNIT, (PUTATIVE)): 0.96; fold change vs vehicle control (protein LMJF.34.4620 HY[…], CONSERVED): 0.95; fold change (protein LMJF.35.0070 PROHIBITIN, PUTATIVE): 0.97; fold change vs vehicle control (protein LMJF.35.0360 ENOYL-COA HYDRATASE/ISOMERASE FAMILY PROTEIN, CONSERVED): 1.16; fold change (protein LMJF.35.0370 ATP-DEPENDENT DEAD-BOX RNA HELICASE, PUTATIVE): 0.95; fold change (protein LMJF.35.0420 40S RIBOSOMAL PROTEIN S3A, PUTATIVE): 1.12; fold change relative to vehicle control (protein LMJF.35.1220, SHORT CHAIN DEHYDROGENASE, PUTATIVE): 1.02
